Experimental data as given in ChEMBL document CHEMBL5316285 (J Med Chem, 2023).
pIC50: −log10 of the molar value. Calls of active or inactive are those of the source. The calls are words filed in the database; no cut-off is given here.

What was measured:
[1] = target: Nicotinamide phosphoribosyltransferase (Homo sapiens, UniProt P43490); test: Inhibition of NAMPT (unknown origin) using NAM as substrate preincubated for 5 mins followed by substrate addition measured after 15 mins in presence of ATP by fluorescence based microplate reader analysis
[2] = target: T1, von Hippel-Lindau disease tumor suppressor/Nicotinamide phosphoribosyltransferase (Homo sapiens, UniProt P43490+P40337); test: Protac activity at VHL/NAMPT in human A2780 cells assessed as degradation of NAMPT using NAM as substrate preincubated for 5 mins followed by substrate addition measured after 5 mins in presence of ATP by luminesence based microplate reader analysis; type: cell-based
Target sequence in this assay (P43490 whole entry): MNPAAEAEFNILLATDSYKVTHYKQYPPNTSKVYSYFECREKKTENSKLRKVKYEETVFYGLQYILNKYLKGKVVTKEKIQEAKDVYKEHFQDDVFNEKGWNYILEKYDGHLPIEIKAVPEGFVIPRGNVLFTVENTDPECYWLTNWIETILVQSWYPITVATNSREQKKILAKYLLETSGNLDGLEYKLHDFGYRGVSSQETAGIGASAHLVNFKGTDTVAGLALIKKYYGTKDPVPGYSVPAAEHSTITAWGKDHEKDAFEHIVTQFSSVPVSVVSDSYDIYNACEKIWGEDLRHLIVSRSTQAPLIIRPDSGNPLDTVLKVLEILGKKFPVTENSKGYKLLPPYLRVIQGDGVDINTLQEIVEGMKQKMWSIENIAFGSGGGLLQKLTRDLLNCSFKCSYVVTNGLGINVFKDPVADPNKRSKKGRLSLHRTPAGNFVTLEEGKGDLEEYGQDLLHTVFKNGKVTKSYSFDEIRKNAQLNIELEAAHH
Target sequence in this assay (P40337 whole entry): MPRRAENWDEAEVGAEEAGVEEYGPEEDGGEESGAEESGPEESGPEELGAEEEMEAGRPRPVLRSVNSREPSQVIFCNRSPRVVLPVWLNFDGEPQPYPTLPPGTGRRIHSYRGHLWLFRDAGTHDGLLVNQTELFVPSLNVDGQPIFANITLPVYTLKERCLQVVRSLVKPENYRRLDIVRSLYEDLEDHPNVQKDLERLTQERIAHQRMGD

[3] = tested on: A2780; test: Antiproliferative activity against human A2780 cells incubated for 72 hrs in carbon-dioxide atmosphere measured by cell counting kit-8 method; type: functional, cell-based; settings: A2780, 72 h
[4] = target: T1, von Hippel-Lindau disease tumor suppressor/Nicotinamide phosphoribosyltransferase; test: Protac activity at VHL/NAMPT in human A2780 cells assessed as induction of NAMPT degradation measured at 500 to 5000 nM after 24 hrs by Western blotting analysis; type: cell-based; settings: dose 500-5000 nM
Target sequence in this assay (P40337 whole entry, looked up): as the sequence (P40337 whole entry) above
Target sequence in this assay (P43490 whole entry, looked up): as the sequence (P43490 whole entry) above

[5] = target: T1, von Hippel-Lindau disease tumor suppressor/Nicotinamide phosphoribosyltransferase; test: Protac activity at VHL/NAMPT in human A2780 cells assessed as induction of NAMPT degradation measured at 5 to 50 nM after 24 hrs by Western blotting analysis; type: cell-based; settings: dose 5-50 nM
Target sequence in this assay (P40337 whole entry, looked up): as the sequence (P40337 whole entry) above
Target sequence in this assay (P43490 whole entry, looked up): as the sequence (P43490 whole entry) above

[6] = target: T1, von Hippel-Lindau disease tumor suppressor/Nicotinamide phosphoribosyltransferase; test: Protac activity at VHL/NAMPT in human A2780 cells assessed as reduction of NAMPT protein level at 10 nM measured after 24 hrs by Western blotting analysis; type: cell-based
Target sequence in this assay (P40337 whole entry, looked up): as the sequence (P40337 whole entry) above
Target sequence in this assay (P43490 whole entry, looked up): as the sequence (P43490 whole entry) above

[7] = target: T1, von Hippel-Lindau disease tumor suppressor/Nicotinamide phosphoribosyltransferase; test: Protac activity at VHL/NAMPT in human A2780 cells assessed as induction of NAMPT degradation measured at 0.005 to 10 microM after 24 hrs by Western blotting analysis; type: cell-based; settings: dose 0.005-10 µM
Target sequence in this assay (P40337 whole entry, looked up): as the sequence (P40337 whole entry) above
Target sequence in this assay (P43490 whole entry, looked up): as the sequence (P43490 whole entry) above

[8] = target: T1, von Hippel-Lindau disease tumor suppressor/Nicotinamide phosphoribosyltransferase; test: Protac activity at VHL/NAMPT in human A2780 cells assessed as induction of NAMPT degradation measured at 0.2 to 500 nM after 24 hrs by Western blotting analysis; type: cell-based; settings: dose 0.2-500 nM
Target sequence in this assay (P40337 whole entry, looked up): as the sequence (P40337 whole entry) above
Target sequence in this assay (P43490 whole entry, looked up): as the sequence (P43490 whole entry) above

[9] = target: T1, von Hippel-Lindau disease tumor suppressor/Nicotinamide phosphoribosyltransferase; test: Protac activity at VHL/NAMPT in human A2780 cells assessed as reduction of NAMPT protein level at 0.1 to 100 nM measured after 24 hrs by Western blotting analysis; type: cell-based; settings: dose 0.1-100 nM
Target sequence in this assay (P40337 whole entry, looked up): as the sequence (P40337 whole entry) above
Target sequence in this assay (P43490 whole entry, looked up): as the sequence (P43490 whole entry) above

[10] = Toxicity in nude mouse xenografted with human A2780 cells assessed as loss in body weight at 2 uM/Kg, IV once every 3 days upto 21 days; settings: 504 h, time 21 day
[11] = Retinal toxicity in nude mouse xenografted with human A2780 cells at 2 uM/Kg, IV once every 3 days upto 21 days by microscopic analysis; settings: 504 h, time 21 day
[12] = tested on: A2780; test: Antitumor activity against human A2780 cells xenografted in nude mouse assessed as tumor growth inhibition at 2 uM/Kg, IV once every 3 days upto 21 days relative to control; type: functional; settings: time 21 day, at 2 µmol/kg
[13] = Toxicity in nude mouse xenografted with human A2780 cells assessed as pathological damage in lung at 2 uM/Kg, IV once every 3 days upto 21 days by hematoxylin and eosin staining analysis; type: tissue-based; settings: 504 h, time 21 day
[14] = Toxicity in nude mouse xenografted with human A2780 cells assessed as pathological damage in kidney at 2 uM/Kg, IV once every 3 days upto 21 days by hematoxylin and eosin staining analysis; type: tissue-based; settings: 504 h, time 21 day
[15] = tested on: CT26; test: Antiproliferative activity against mouse CT26 cells; type: functional, cell-based

Sequence of Nicotinamide phosphoribosyltransferase (P43490 whole entry): as above

| SMILES | pIC50 [1] | DC50 [2] [nM] | pIC50 [3] | other results |
| --- | --- | --- | --- | --- |
| Cc1ncsc1-c1ccc([C@H](C)NC(=O)[C@@H]2C[C@@H](O)CN2C(=O)[C@@H](NC(=O)COCCOCCOCCOCCn2cc(CCN3CCN(S(=O)(=O)c4ccc(NC(=O)NCc5cccnc5)cc4)CC3)nn2)C(C)(C)C)cc1 | 7.08 | 50 | 6.40 | Activity [4]: Active; Activity [5]: inactive |
| Cc1ncsc1-c1ccc([C@H](C)NC(=O)[C@@H]2C[C@@H](O)CN2C(=O)[C@@H](NC(=O)CCCCCCCN2CCN(S(=O)(=O)c3ccc(NC(=O)NCc4cccnc4)cc3)CC2)C(C)(C)C)cc1 | 7.00 | > 100 | 8.23 | – |
| CC(=O)N[C@H](C(=O)N1C[C@H](O)C[C@H]1C(=O)N[C@@H](C)c1ccc(-c2scnc2C)cc1)C(C)(C)C | < 5.70 | – | < 4.00 | – |
| Cc1ncsc1-c1ccc([C@H](C)NC(=O)[C@@H]2C[C@@H](O)CN2C(=O)[C@@H](NC(=O)CCCCCCCCCCCN2CCN(S(=O)(=O)c3ccc(NC(=O)NCc4cccnc4)cc3)CC2)C(C)(C)C)cc1 | 6.51 | 2.4 | 7.52 | Activity [6]: Active; Activity [7]: Dose-Dependent Effect |
| Cc1ncsc1-c1ccc([C@H](C)NC(=O)[C@@H]2C[C@@H](O)CN2C(=O)[C@@H](NC(=O)COCCOCCOCCOCCN2CCN(S(=O)(=O)c3ccc(NC(=O)NCc4cccnc4)cc3)CC2)C(C)(C)C)cc1 | 6.89 | 19 | 6.76 | Activity [8]: Dose-Dependent Effect |
| Cc1ncsc1-c1ccc([C@H](C)NC(=O)[C@@H]2C[C@@H](O)CN2C(=O)[C@@H](NC(=O)COCCN2CCN(S(=O)(=O)c3ccc(NC(=O)NCc4cccnc4)cc3)CC2)C(C)(C)C)cc1 | 6.80 | > 100 | 5.26 | Activity [9]: inactive |
| Cc1ncsc1-c1ccc([C@H](C)NC(=O)[C@@H]2C[C@@H](O)CN2C(=O)[C@@H](NC(=O)CCCCCCCCCN2CCN(S(=O)(=O)c3ccc(NC(=O)NCc4cccnc4)cc3)CC2)C(C)(C)C)cc1 | 6.72 | 1.5 | 8.00 | Activity [6]: Active; Activity [7]: Dose-Dependent Effect |
| Cc1ncsc1-c1ccc([C@H](C)NC(=O)[C@@H]2C[C@@H](O)CN2C(=O)[C@@H](NC(=O)COCCOCCOCCOCCOCCn2cc(CCN3CCN(S(=O)(=O)c4ccc(NC(=O)NCc5cccnc5)cc4)CC3)nn2)C(C)(C)C)cc1 | 6.01 | 50 | 6.32 | Activity [4]: Active; Activity [5]: inactive |
| Cc1ncsc1-c1ccc([C@H](C)NC(=O)[C@H]2C[C@H](O)CN2C(=O)[C@@H](NC(=O)CCCCCCCCN2CCN(S(=O)(=O)c3ccc(NC(=O)NCc4cccnc4)cc3)CC2)C(C)(C)C)cc1 | 6.96 | > 10000 | 6.15 | – |
| Cc1ncsc1-c1ccc([C@H](C)NC(=O)[C@@H]2C[C@@H](O)CN2C(=O)[C@@H](NC(=O)COCCn2cc(CCN3CCN(S(=O)(=O)c4ccc(NC(=O)NCc5cccnc5)cc4)CC3)nn2)C(C)(C)C)cc1 | 6.92 | 50 | 6.36 | Activity [4]: Active; Activity [5]: inactive |
| O=C(/C=C/c1cccnc1)NCCCCC1CCN(C(=O)c2ccccc2)CC1 [DAPORINAD] | – | – | 9.55 | Activity [10]: Toxic; Activity [11]: Non-Toxic; TGI [12]: 62.9%; Activity [13]: Toxic; Activity [14]: Toxic |
| Cc1ncsc1-c1ccc([C@H](C)NC(=O)[C@@H]2C[C@@H](O)CN2C(=O)[C@@H](NC(=O)COCCOCCOCCOCCOCCN2CCN(S(=O)(=O)c3ccc(NC(=O)NCc4cccnc4)cc3)CC2)C(C)(C)C)cc1 | 6.72 | 22 | 6.88 | Activity [8]: Dose-Dependent Effect |
| Cc1ncsc1-c1ccc([C@H](C)NC(=O)[C@@H]2C[C@@H](O)CN2C(=O)[C@@H](NC(=O)COCCOCCN2CCN(S(=O)(=O)c3ccc(NC(=O)NCc4cccnc4)cc3)CC2)C(C)(C)C)cc1 | 6.82 | > 100 | 5.91 | Activity [9]: inactive |
| Cc1ncsc1-c1ccc([C@H](C)NC(=O)[C@@H]2C[C@@H](O)CN2C(=O)[C@@H](NC(=O)CCCCCCCCCCN2CCN(S(=O)(=O)c3ccc(NC(=O)NCc4cccnc4)cc3)CC2)C(C)(C)C)cc1 | 6.64 | < 4.6 | 7.52 | Activity [6]: Active; Activity [7]: Dose-Dependent Effect |
| Cc1ncsc1-c1ccc([C@H](C)NC(=O)[C@@H]2C[C@@H](O)CN2C(=O)[C@@H](NC(=O)COCCOCCOCCN2CCN(S(=O)(=O)c3ccc(NC(=O)NCc4cccnc4)cc3)CC2)C(C)(C)C)cc1 | 6.89 | 93 | 7.25 | Activity [8]: Dose-Dependent Effect |
| O=S(=O)(c1ccc(NC(=S)NCc2cccnc2)cc1)N1CCCCC1 | – | – | 6.89 | Activity [11]: Non-Toxic; pIC50 [15]: 5.34; TGI [12]: 49.8% |
| Cc1ncsc1-c1ccc([C@H](C)NC(=O)[C@@H]2C[C@@H](O)CN2C(=O)[C@@H](NC(=O)COCCOCCOCCn2cc(CCN3CCN(S(=O)(=O)c4ccc(NC(=O)NCc5cccnc5)cc4)CC3)nn2)C(C)(C)C)cc1 | 7.03 | 50 | 6.31 | Activity [4]: Active; Activity [5]: inactive |
| Cc1ncsc1-c1ccc([C@H](C)NC(=O)[C@@H]2C[C@@H](O)CN2C(=O)[C@@H](NC(=O)COCCOCCn2cc(CCN3CCN(S(=O)(=O)c4ccc(NC(=O)NCc5cccnc5)cc4)CC3)nn2)C(C)(C)C)cc1 | 6.72 | 50 | 6.13 | Activity [4]: Active; Activity [5]: inactive |
| Cc1ncsc1-c1ccc([C@H](C)NC(=O)[C@@H]2C[C@@H](O)CN2C(=O)[C@@H](NC(=O)CCCCCCN2CCN(S(=O)(=O)c3ccc(NC(=O)NCc4cccnc4)cc3)CC2)C(C)(C)C)cc1 | 6.92 | > 10000 | 7.02 | – |
